No end group written: not given here.
How the values were obtained:
[1] = test system: hippocampal CA1 neurons; test: Forebrain ischemia, hippocampal CA1 neuronal cell death, iv infusion started immediately after ischemia; assay type: in vivo, rat
Procedure: (§1) The clips were removed 15 minutes later. […] The incision wound was closed.
PACAP38 was administered i.v. to rats (see example 5) over one week, starting immediately after ischemia/reperfusion. […] In this experiment, 20 μg/kg (approximately 4 nmol/kg) was given as a bolus iv injection before the infusion began.

[2] = test system: dorsomedial population of dorsal root ganglia (DRG18); test: Natural neuronal cell death in dorsal root ganglion DRG18 of chick embryo; conditions: 25 nM in the egg daily E3 1/2 to E8 1/2, counted on E9, p<0.01
Procedure: The control group received vehicle and the experimental group received PACAP38 (25 nM in the egg) daily from E3 ½ to E8 ½. Number is the mean of the numbers of degenerating cells in 6 ganglia in each group. Bar indicates SEM.
Effect of PACAP on natural neuronal cell death was also examined in chick embryos using similar experimental procedures described by Hamburger and Montalcini. […] Fertilized White Leghorn eggs (Troslow Farms) were incubated at 39 C. at 99% humidity. A small hole was opened at the top of the egg on E3 ½ (Stage 23) by punching with micro-dissecting tweezers. One μl/g of egg weight of sterile Tyrode solution or solution containing 5 μM or 25 μM PACAP38 was administered daily through the hole onto the highly vascularized chorioallantoic membrane from day E3 ½ through E8 ½ in the experiment for dorsal root ganglion (DRG), and from E6 through E9 for lumbar motor column (LMC). […]
The magnification used (×400), one can observe DRG18 divided into two populations of cells: large differentiating ventrolateral (VL) and small, late differentiating dorsomedial (DM) cells. […] Macrophages containing debris of several cells were encountered rarely and counted as two degenerating cells. Every second section of the ganglia was counted, and the sum multiplied by two to obtain a data point. A total of 6 ganglia were counted in each of the control and experimental groups, respectively.

[3] = test system: motoneurons in the lateral motor column (LMC); test: Survival of motoneurons in lumbar lateral motor column of chick embryo
Procedure: Embryos received vehicle, or 5 nM or 25 nM PACAP (concentrations in the egg after injection) daily from E6 to E9. Average LMC is represented by 320-340 sections and cell counts were made on every tenth section. Sum of live cells in all counted sections multiplied by 10 is shown in this figure. Numbers indicate mean numbers of live cells in 6 LMC in each group. Bars indicate SME.
Effect of PACAP on natural neuronal cell death was also examined in chick embryos using similar experimental procedures described by Hamburger and Montalcini. […] Fertilized White Leghorn eggs (Troslow Farms) were incubated at 39 C. at 99% humidity. A small hole was opened at the top of the egg on E3 ½ (Stage 23) by punching with micro-dissecting tweezers. […]
In the lumbar motor column (LMC), intact motoneurons were easily distinguishable from surrounding cells due to their large size and deeply stained perikaryon. Only those neurons with an intact nuclear membrane and at least one visible nucleolus were counted as live cells. Every tenth section of the LMC was counted, and the sum of the sections multiplied by ten to obtain a data point. A total of 6 motor columns was counted in each of the control and experimental groups.

[4] = test system: dissociated hippocampal cultures; test: Prevention of gp120-induced neuronal cell death in dissociated hippocampal cultures; assay type: cell-based, mice; conditions: 1 pM gp120, five days
Procedure: The cultures were prepared from 16-17 day-old mice embryos (C57B1/6) as previously described. Brenneman, et al., Nature 335: 639-642 (1988). Before treatment, the cultures were given a complete change of medium. […] Cell counts were conducted on 60 fields, 0.12 mm^2 each. Neurons were identified immunocytochemically using antiserum against neuron specific enolase. Schmechel, et al., Nature 276: 834-836 (1978). Each value is the mean of 3-5 dishes.
Brenneman, et al. Nature 335: 639-642 (1988). […] Brenneman, et al. Nature 335: 639-642 (1988). […] Arimura, et al., Trends Endocr. Metab. 3: 288-294 (1993). Arimura et al., Ann NY Acad. Sci. 739:228-243 (1994).

[5] = biological target: T1, PACAP binding sites in rat brain membrane preparations (Rattus norvegicus, UniProt P32215); test: Radioreceptor assay: displacement of 125I-PACAP27 binding to E18 rat brain membranes; conditions: for displacement of 125I-PACAP27 binding: unlabeled peptide
T1 construct: from tissue; host or cells: rat brain membrane preparations (E18 whole brain; other ages and regions also dissected)
T1 sequence (P32215 20-523): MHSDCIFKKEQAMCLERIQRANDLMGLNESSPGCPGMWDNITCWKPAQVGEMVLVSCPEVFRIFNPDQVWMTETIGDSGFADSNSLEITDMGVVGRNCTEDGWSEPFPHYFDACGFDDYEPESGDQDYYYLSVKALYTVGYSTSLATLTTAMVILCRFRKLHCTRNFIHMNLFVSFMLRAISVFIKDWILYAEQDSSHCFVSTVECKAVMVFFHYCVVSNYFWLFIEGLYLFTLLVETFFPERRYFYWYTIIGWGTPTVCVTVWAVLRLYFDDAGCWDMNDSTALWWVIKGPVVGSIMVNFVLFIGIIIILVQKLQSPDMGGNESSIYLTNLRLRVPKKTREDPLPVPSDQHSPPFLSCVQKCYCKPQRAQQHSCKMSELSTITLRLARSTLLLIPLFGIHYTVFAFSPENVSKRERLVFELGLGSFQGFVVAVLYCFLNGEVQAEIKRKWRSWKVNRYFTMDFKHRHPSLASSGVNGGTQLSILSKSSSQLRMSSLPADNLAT
Source text: Male CD rats (Charles River Breeding Labs., Wilmington, Mass.) were used throughout this example. The following regions of the brain were dissected at the indicated ages: embryonic day E14 (whole brain); E18 (whole brain, neocortex, hippocampus, and diencephalon); postnatal days P0, P7 and P14 (whole brain, neocortex, hippocampus, diencephalon, and cerebellum); and 1-, 2- and 3-months old (MO) (whole brain, neocortex, hippocampus, diencephalon, and cerebellum). After dissection, each region was immediately frozen on dry-ice and stored at −70 C. for up to 2 months until the receptor and peptide levels were determined. […] Arimura, et al., Endocrinology 129: 2787-2789 (1991). […] Gottschall, et al., Endocrinology 127: 272-277 (1990), and Gottschall, et al., FASEB J 5: 194-199 (1991).
Gottschall, et al., Endocrinology 127: 272-277 (1990) and Gottschall, et al., FASEB J 5: 194-199.

[6] = test system: hippocampal CA1 neurons; test: Forebrain ischemia/reperfusion (four vessel occlusion), hippocampal CA1 neuronal cell death, icv administration
Procedure: Each column indicates viable cell number 7 days after 15 min ischemia of the forebrain of rats which were intracerebroventricularly administered the vehicle alone or the vehicle containing varying amounts of PACAP38. The numbers of cells are expressed by percentages of live cells as compared with the cells in the same area of the intact rat hippocampus. […] FIGS. 13A-F are microphotographs of coronal sections of the right hippocampal CA1 from intact rats and rats subjected to forebrain ischemia for 15 min. The sections were stained with cresyl violet (A, B, C) and immunostained for MAPII (D, E, F). A, D: Intact rats. B, E: 7 days after ischemia in vehicle-infused (icv) rats. […] PACAP38 administration started immediately after ischemia.
Adult male rats of CD strain weighing 270-300 g body weight (Charles River Breeding labs, Wilmington, Miss.) were used. Under Ketamine anesthesia, the bilateral vertebrate arteries were permanently occluded at the first cervical vertebra by electrocoagulation. Bilateral carotid arteries were exposed and a loop of silicon rubber tubing was placed around each carotid artery, leaving the end of the tubing outside the suture. The animal was left in the laboratory with water, but without food. The following morning, both loops around the carotid arteries were pulled and artery clips were applied on the loops at the portion close to the skin so that both carotid arteries were occluded and ischemia of the brain occurred as long as the clips remained. The clips were removed 15 minutes later. During ischemia, body temperature was monitored by thermometer placed in the rectum and the body temperature was maintained at 37° C. by radiation heat from light bulb. […] Reperfusion of bilateral carotid arteries was assured by direct visual examination. The incision wound was closed.
Soon after the reperfusion of the carotid arteries began, the animal was placed on a stereotaxic instrument, the skull was exposed, and a small hole was made by a dental drill at anterior 0.6 lateral 1.5, vertical 5.0 mm from the bregma and skull surface, and guided cannula (Alza Corp., Palo Alto, Calif.) was inserted into the hole so that the tip of the cannula is in the lateral cerebroventricle and fixed on the skull by dental cement. The incised skin was then closed by suture. Then 10 μl of artificial cerebrospinal fluid (CSF) containing 0.1% bovine serum albumin (ESA) or the vehicle containing varying amounts of PACAP38 was introduced.
PACAP38 was icv infused into the right lateral cerebroventricle of rats having neuronal cell damage in the CA1 of the hippocampus as discussed in example 5. The effect of the icv infusion of PACAP38 on ischemia-induced neuronal cell death in the hippocampal CA1 in rats was measured.

[7] = test system: hippocampal CA1 neurons; test: Forebrain ischemia, hippocampal CA1 neuronal cell death, iv infusion started 24 hrs after ischemia; assay type: in vivo, rat; conditions: bolus and infusion started 24 hrs after ischemia
Procedure: FIG. 18 is a graph showing the cytoprotective effect of iv infusion of PACAP38 which started 24 hrs. after ischemia in rats.
as §1
Neuronal cell death in CA1 induced by forebrain ischemia progresses slowly. One day after ischemia/reperfusion many viable neurons were still seen in CA1. However, nearly all neurons died one week after ischemia. Therefore, if the administration of PACAP38 is started 24 hrs after ischemia, the treatment could possibly still prevent the slow death of the neurons. To test this hypothesis, a bolus iv injection and subsequent iv infusion of PACAP38 was started 24 hrs after ischemia.

[8] = rat, in vivo
Procedure: FIG. 15 is a graph showing ^125I -PACAP 38 levels in brain tissue 10 minutes after icv injection, at 1×10^6 cpm ^125I-PACAP38.
This calculation was based on the transport of ^125I-labelled peptide given icv as a bolus but slow injection over 5 min. 1×10^6 cpm ^125I-PACAP38 was injected icv in anesthetized rats, the cpm in the brain tissues 10 min after the injection is shown in FIG. 15.
The labelled peptide was injected into the right lateral ventricle.

[9] = test system: dissociated hippocampal cultures; conditions: cited from earlier work
[10] = test system: cultured rat astrocytes, intracellular cAMP; test: cAMP response in cultured rat astrocytes (RIA); assay type: cell-based; conditions: astrocyte cultures
Procedure: Astrocytes cultures were prepared from brain of neonatal rats. Astrocytes were allowed to proliferate for 7-10 days before experiments.
(§2) Yada, et al., J. Biol. Chem. 269: 1290-1293 (1994).

[11] = biological target: T2, Type I PACAP receptor (Homo sapiens, UniProt P41586); conditions: cited from earlier work
T2 sequence (P41586 21-468): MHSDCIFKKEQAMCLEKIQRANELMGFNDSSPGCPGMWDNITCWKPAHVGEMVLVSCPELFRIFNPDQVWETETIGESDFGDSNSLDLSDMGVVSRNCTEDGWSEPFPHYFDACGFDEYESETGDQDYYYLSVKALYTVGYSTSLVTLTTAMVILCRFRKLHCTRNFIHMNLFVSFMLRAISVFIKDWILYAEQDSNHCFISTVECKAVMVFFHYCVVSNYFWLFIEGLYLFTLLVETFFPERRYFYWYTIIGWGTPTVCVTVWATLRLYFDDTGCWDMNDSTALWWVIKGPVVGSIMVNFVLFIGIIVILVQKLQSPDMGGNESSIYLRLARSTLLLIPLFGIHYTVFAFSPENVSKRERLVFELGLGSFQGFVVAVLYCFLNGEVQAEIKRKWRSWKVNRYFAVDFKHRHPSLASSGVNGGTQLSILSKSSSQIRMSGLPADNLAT

[12] = test system: cultured rat neurons, intracellular cAMP; test: cAMP response in cultured rat neurons (RIA); assay type: cell-based; conditions: neuron cultures
Procedure: Neuron cultures were prepared from brains of 1 day-old rats. 1×10^7 cells were plated in each dish (35 mm diameter).
as §2

[13] = test system: CNS cultures, cAMP; test: cAMP in CNS cultures at the peptide concentrations that increase neuronal survival; assay type: cell-based; conditions: 0.1 nM, any CNS culture system
[14] = biological target: T3, PACAP receptor (PACAP binding sites) in rat brain membrane preparations (rat, UniProt P32215 20-523); test: Scatchard analysis of displacement of 125I-PACAP27, E18 rat brain membranes; reference PACAP27
T3 construct: whole, on cells; Native receptor in crude brain membranes, not a recombinant protein; also called the receptor
T3 sequence (looked up): T1 sequence (P32215 20-523)

## PACAP[1-38]-NH2 [PACAP38]
[1]; iv 16 pmol/hr over one week after 20 μg/kg iv bolus
  effect on ischemia-induced neuronal cell death in CA1: attenuated neuronal cell death significantly
[1]; iv 160 pmol/hr over one week after 20 μg/kg iv bolus
  effect on ischemia-induced neuronal cell death in CA1: attenuated neuronal cell death significantly
[2]
  number of degenerating cells less than in untreated embryos: 37.2%
[3]; 5 nM in the egg daily E6 to E9, counted on E10
  increase in number of motoneurons per motor column: 7.2%
[3]; 25 nM in the egg daily E6 to E9, counted on E10
  increase in number of motoneurons per motor column: 12.5%
[4]
  lower peak of bimodal dose-response curve of cytoprotection: 0.1 pM
  upper peak of bimodal dose-response curve of cytoprotection: 0.1 nM
[5]
  affinity for the receptor relative to PACAP27 (higher): about 10 fold
  displacement of 125I-PACAP27 binding: more effectively than did PACAP27
[6]; after bolus 450 ng/10 μl H2O over 10 min, infusion over seven days, FIG. 12
  most effective continuous icv infusion rate: 45 ng/µL/h
[6]; icv infusion into right lateral cerebroventricle over one week, FIG. 16
  icv dose of maximum cytoprotective effect (bell-shaped dose-response): 1 pmol/h
[6]; icv infusion over one week, viable neurons 7 days after ischemia
  effect on ischemia-induced neuronal cell death in CA1: significantly prevented the neuronal cell death
[6]; icv osmotic pump 1 pmol/h over one week, started immediately after ischemia, 7 days
  effect on ischemia-induced cell death in CA1 (histology): prevented ischemia-induced cell death in CA1
[6]; icv over 7 days, 10, 1, 0.1 and 0.01 pmol/h tested, FIG. 14
  most effective icv dose: 1 pmol/h
[7]; iv 16 pmol/hr
  effect on ischemia-induced neuronal cell death in CA1: significantly (<0.01) attenuated brain cell death
[7]; iv 160 pmol/hr
  effect on ischemia-induced neuronal cell death in CA1: significantly (<0.01) attenuated brain cell death

## glucagon: structurally related peptide used in binding competition
[5]
  displacement of 125I-PACAP27 binding: did not displace

## ^125I-PACAP38
[8]
  CPM in right hippocampus relative to left: four times greater
  radioactivity in left hippocampus: 5 cpm per mg tissue
  radioactivity in right hippocampus: 20 cpm per mg tissue

## VIP: vasoactive intestinal peptide
[9]; 0.1 nM
  effect on neuronal death in gp120-treated cultures: prevented neuronal death
[9]; murine hippocampal cultures
  effect on neuronal cell death associated with gp120 treatment: potently and completely prevented
[10]
  potency in increasing cellular cAMP, times less potent than PACAP: approximately 1000 times
[11]
  affinity for Type I PACAP receptor, times less than that of PACAP: 1000 times
  binding to Type I PACAP receptor: do not bind
[5]
  displacement of 125I-PACAP27 binding: did not displace
[12]
  potency in increasing cellular cAMP, times less potent than PACAP: approximately 1000 times
[13]
  cAMP response at the concentration that increases neuronal survival: no increases in cAMP

## GHRH: structurally related peptide used in binding competition
[5]
  displacement of 125I-PACAP27 binding: did not displace

## secretin: structurally related peptide used in binding competition
[5]
  displacement of 125I-PACAP27 binding: did not displace

B1: Pituitary adenylate cyclase activating polypeptide, complete form with 38 amino acids (PACAP38) (peptide)
peptide: HSDGIFTDSYSRYRKQMAVKKYLAAVLGKRYKQRVKNK-NH2
notes: Synthetic peptide made by solid phase synthesis; also called PACAP[1-38]-NH2; unlabeled PACAP38
[14]
  fold higher affinity than PACAP27: ~10 fold

— patent publication US6680295B1, “Method and pharmaceutical composition for prevention and treatment of brain damage” (priority 1994, dated 2004)
